Earlier results on one compound are cited in patent US20100003250A1, “(2-ARYL-7H-PYRROLO[2,3-D]PYRIMIDIN-4-YL)MORPHOLINE COMPOUNDS, THEIR USE AS MTOR KINASE AND PI3 KINASE INHIBITORS, AND THEIR SYNTHESES” (Wyeth, priority 2008, published 2010).

The structures appear in SMILES notation.

In this data set the test system is acute lymphoblastic leukemia. The conditions noted are these: in vivo; cited from earlier work.

As to `CO[C@H]1C[C@@H]2CC[C@@H](C)[C@@](O)(O2)C(=O)C(=O)N2CCCC[C@H]2C(=O)O[C@H]([C@H](C)C[C@@H]2CC[C@@H](OC(=O)C(C)(CO)CO)[C@H](OC)C2)CC(=O)[C@H](C)/C=C(\C)[C@@H](O)[C@@H](OC)C(=O)[C@H](C)C[C@H](C)/C=C/C=C/C=C/1C` [Torisel], the “activity in NOS/SCID xenograft mouse model of acute lymphoblastic leukemia” value is “active”.
